Values quoted from earlier work in US10285987B2, “Device and kit for dosing and dispensing non-liquid medicine” (AmpliPharm Pharmaceuticals, LLC, priority 2017, dated 2019).

Conditions: skin contact

## Cn1nnc2c(C(N)=O)ncn2c1=O [temozolomide, 3,4-dihydro-3-methyl-4-oxoimidazo [5,1-d]-as-tetrazine-8-carboxamide]
  classification for skin corrosion/irritation and eye irritation: category 2
